# Reference: PubChem BioAssay (NCI)
# “And” between values parts separate entries of the source, which are not always exact repeats. Identical values can stand only once.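 Results reflect a 48-hour exposure of cells in 96-well plates to compound at five concentrations. The concentration for 50% growth inhibition is given as GI50. TGI is the concentration that stops growth completely.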
# Legend:
# Assay in all cases: NCI tumour cell line growth inhibition, 48 h
# HCC-2998 colon = system: HCC-2998 colon
# EKVX NSCLC = system: EKVX NSCLC
# HS 578T breast = system: HS 578T breast
# MCF7 breast = system: MCF7 breast
# BT-549 breast = system: BT-549 breast
# ACHN renal = system: ACHN renal
# U251 CNS = system: U251 CNS
# HL-60(TB) leukemia = system: HL-60(TB) leukemia
# MOLT-4 leukemia = system: MOLT-4 leukemia
# DU-145 prostate = system: DU-145 prostate
Compound,TGI (HCC-2998 colon) [µM],TGI (EKVX NSCLC) [µM],TGI (HS 578T breast) [µM],TGI (MCF7 breast) [µM],TGI (BT-549 breast) [µM],GI50 (ACHN renal) [µM],TGI (ACHN renal),GI50 (U251 CNS) [µM],TGI (U251 CNS),TGI (HL-60(TB) leukemia) [µM],GI50 (MOLT-4 leukemia) [µM],TGI (DU-145 prostate) [µM],GI50 (HCC-2998 colon) [µM],GI50 (EKVX NSCLC) [µM],GI50 (HS 578T breast) [µM],GI50 (MCF7 breast) [µM],GI50 (HL-60(TB) leukemia) [µM],GI50 (DU-145 prostate) [µM],GI50 (BT-549 breast) [µM],TGI (MOLT-4 leukemia) [µM]
C/C1=C\[C@@H](O)C(=O)/C=C/C=C\c2csc(n2)[C@@H](C)NC(=O)C[C@@]2(CC1)S(=O)SC(=O)[C@]2(C)O (stereo partly drawn),0.676,0.612,0.435,0.0101,0.0062,0.00433,0.038 µM and 0.0122 µM,0.0122,0.209 µM and 0.267 µM,7.36,> 100,0.114,,,,,,,,
BrCc1ccc(CBr)cc1,15.3,25.7,69,> 21.7,3.8,1.94,6.78 µM,6.25,> 100 µM,,2.11,12.9,6.4,10.5,21.6,1.89,7.6,3.38,,
CCN1C(=O)N(CC)C2C1NN=c1s/c(=C3\C(=O)N(CCc4ccccc4)c4ccccc43)c(=O)n12 (stereo not drawn),> 25,> 100,6.37,> 67.7,4.97,0.767,,0.413,15.6 µM,1.56,1.49,6.95,1.15,0.641,0.449,0.353,0.538,0.558,1.49,> 100
CC(C)(C)CN1CCn2c(nc3c(N)nccc32)S1,34.8,> 100,> 100,37,66.1,7.45,> 100 µM,13.3,47.2 µM,25.7,5.55,> 100,13.7,30.9,33.6,3.97,4.77,4.46,19.1,82
COc1ccc(/C=N/NC(=O)Cn2c(-c3ccc(S(C)(=O)=O)cc3)nc3cc(Cl)ccc32)cc1,12.5,> 50,> 50,> 50,48.5,2.13,> 50 µM,1.16,> 50 µM,7.3,2.11,> 50,1.85,2.51,1.77,1.92,0.446,1.95,2.74,> 50
COc1ccc2c(c1)OC1=C(C(=O)OC1)C2c1cc(OC)c2c(c1)OCO2 (stereo not drawn),> 35.1,> 100,> 100,> 100,> 100,0.267,> 100 µM,0.0429,> 100 µM,,0.0737,0.459,0.0424,,0.0348,0.0342,0.0342,0.0364,,> 100
CCN1C(=O)N(CC)C2C1NN=c1s/c(=C\c3ccccc3Br)c(=O)n12 (stereo not drawn),4.12,> 70.7,20.5,16.5,17.1,0.0437,> 61.6 µM,0.0418,22.3 µM,0.0639,0.0399,> 38.7,0.0392,0.317,0.0355,0.0328,0.0241,0.0362,0.0327,29.5
COc1ccc(OC)c(Cn2cc3c(c2)-c2oncc2CC3)c1,38.1,> 100,8.32,> 81.9,> 100,6.07,> 100 µM,3.54,> 100 µM,6.74,3.08,> 64.3,4.72,4.22,2.25,3.02,1.65,3.74,4.05,> 41.2
CC(C)=CCC/C(C)=C/CC/C(C)=C/CC/C=C(\C)CC/C=C(\C)CCC(=O)Nc1ccn(C2OC(CO)C(O)C2(F)F)c(=O)n1 (stereo not drawn),23,17,35.2,4.34,0.472,0.0266,11.2 µM,0.0884,16.1 µM,0.539,0.0743,3.23,0.9,0.112,10.3,< 0.011,0.0618,0.0455,,1.5
CC(=O)c1c(C(F)(F)F)n([O-])c2ccc(C)cc2[n+]1=O,8.53,4.59,> 58.5,> 100,8.66,3.44,20.4 µM,2.79,> 35.4 µM,10.5,0.0504,3.07,1.89,1.19,3.43,4,1.92,1.43,2.54,5.2
COc1ccc2cc(-c3c(-c4ccncc4)nc(-c4ccc(S(C)=O)cc4)n3C)ccc2c1 (stereo not drawn),> 25,> 25,> 25,> 25,> 25,20.2,> 25 µM,> 25,> 25 µM,> 25,17.2,> 25,25,15.6,13.8,> 19.6,18.3,> 25,21.1,> 25
Nc1ccccc1SCc1csc(-c2ccc(Cl)cc2)n1,47.1,86.9,> 91.5,71.8,72.1,,73.2 µM,,60.1 µM,23.9,,99.1,,,,,,,,25
O=C1NC(=O)C(c2cccc(Cl)c2)=C1Nc1ccc(O)c(Cl)c1,> 25,> 25,19.3,> 25,> 25,11.4,> 25 µM,12.5,> 25 µM,> 25,15,> 25,24.6,10.6,5.11,10.4,8.75,14.1,11.3,> 25
O=C(Nc1cccc(Nc2ncc(Br)c(NCCc3cnc[nH]3)n2)c1)N1CCCC1,24.3,38.1,4.1,17.7,13,11,56 µM,5.22,45.8 µM,24.2,2.41,36.5,9.11,6.07,0.747,1.19,3.47,7.08,2.04,24.8
CN(CC(N)=O)C(=O)N(CCCl)N=O,> 100,> 100,> 100,> 100,> 100,,> 100 µM,,> 100 µM,> 100,,> 100,,,,,,,,> 100
N#Cc1c(N)[nH]c2ccc(Sc3ccccc3)cc12,17.3,11.7,25.8,16.6,19.5,,16 µM,,17.5 µM,1.92,,15.5,,,,,,,,11.2
Cn1cc(-c2nonc2-c2cn(C)c3ccccc23)c2ccccc21,> 100,> 100,24.6,> 100,> 100,1.47,> 100 µM,0.689,> 100 µM,1.72,1.72,> 100,3.07,1.7,0.508,0.591,0.483,1.27,1.37,> 100
Cn1cncc1CC1COC(=O)C1C(O)c1ccccc1 (stereo not drawn),> 100,> 100,> 100,> 100,> 100,,> 100 µM,,> 100 µM,> 100,,> 100,,,,,,,,> 100
COc1ccc(-c2cc(=O)c3c(OC)c(OC)c(OC)c(OC)c3o2)cc1,> 100,> 100,> 100,> 100,> 100,,> 100 µM,,> 100 µM,> 100,,> 100,,,,,,,,> 100
C[C@@H]1O[C@@H](O[C@H]2CC[C@@]3(C)[C@H](CCC4[C@@H]3C(O)C[C@]3(C)[C@@H](c5ccc(=O)oc5)CC[C@]43O)C2)[C@H](O)[C@H](O)[C@H]1O (stereo partly drawn),0.0168,0.00766,0.0659,0.0659,0.00448,< 0.00325,0.00803 µM,0.0052,0.00974 µM,0.00768,< 0.00325,0.00516,0.0075,0.00379,< 0.00325,0.00828,0.0049,0.00355,< 0.00325,
COc1ccc(C2[C@@H](Cl)C(=O)N2c2cc(OC)c(OC)c(OC)c2)cc1Cl (stereo partly drawn),17.6,> 100,70.3,> 100,0.61,0.0798,49.1 µM,0.197,21.3 µM,0.463,0.275,> 100,0.41,0.434,0.0705,0.0367,0.175,0.37,0.102,50.5
CCCCCn1sc(=O)n(Cc2ccc(CNC(=O)OCc3ccc4cccc(O)c4n3)cc2)c1=O,4.52,5.41,6.73,3.7,3.65,1.23,2.47 µM,1.77,3.45 µM,> 100,3.02,3.09,2.09,2.01,2.17,1.34,2.88,1.6,1.44,45.2
CCn1c2ccccc2c2cc(/C=C(/C#N)C(N)=O)ccc21,25.3,> 48.7,39.7,> 47.3,44.7,> 76,> 100 µM,5.45,> 100 µM,> 67.3,6.66,> 100,4.22,3.57,5.69,0.857,4.76,13.8,0.938,> 100
CC(=O)Oc1ccccc1C(=O)/C=C/c1cccc([N+](=O)[O-])c1,4.97,26.6,8.16,10.6,5.41,2.29,4.99 µM,2.02,4.78 µM,9.51,3.15,15.8,2.3,11.3,1.78,1.99,3.26,4.37,2.28,> 100
